# Results taken from the supplement of paper PMC10307832.
# What was measured:
# Test in all cases: relative viability (nuclei count vs DMSO), 5 days (fraction); higher = more cells survive
# [1] = test system: SK-LU-1
# Summary of the method: (§1)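 Values are medians from duplicate plates. Each reflects relative viability, defined as the nuclei count of treated wells over that of vehicle wells. Lung cancer cell lines in 1536-well plates were pin-tool dosed one day after seeding with one drug alone or with a fixed anchor-drug dose plus five library-drug doses (not always all listed) in √10 steps, then fixed, stained and imaged at 4× after 5 days.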
# [2] = test system: LCLC-97TM1
# Summary of the method: as §1
# [3] = test system: NCI-H1650
# Summary of the method: as §1
# [4] = test system: CAL-12T
# Summary of the method: as §1
# [5] = test system: NCI-H3122
# Summary of the method: as §1
# [6] = test system: NCI-H322M
# Summary of the method: as §1
# [7] = test system: LXF-289
# Summary of the method: as §1
# [8] = test system: LCLC-103H
# Summary of the method: as §1
# [9] = test system: HOP-62
# Summary of the method: as §1
# [10] = test system: NCI-H1437
# Summary of the method: as §1
# [11] = test system: NCI-H647
# Summary of the method: as §1
# [12] = test system: NCI-H2405
# Summary of the method: as §1
# [13] = test system: HCC-44
# Summary of the method: as §1
# [14] = test system: NCI-H2087
# Summary of the method: as §1
# [15] = test system: NCI-H1395
# Summary of the method: as §1
# [16] = test system: BEN
# Summary of the method: as §1
# [17] = test system: 201T
# Summary of the method: as §1
# [18] = test system: NCI-H1944
# Summary of the method: as §1
# [19] = test system: NCI-H727
# Summary of the method: as §1
# [20] = test system: HCC-827
# Summary of the method: as §1
# [21] = test system: NCI-H1793
# Summary of the method: as §1
# [22] = test system: NCI-H2228
# Summary of the method: as §1
# [23] = test system: RERF-LC-KJ
# Summary of the method: as §1
compound,measurement,setting,value
C=C1C(=O)O[C@@H](CCCCCCCC)[C@@H]1C(=O)O [C-75] + COc1cccc2cc(-c3nc([C@H]4CC[C@H](C(=O)O)CC4)n4ncnc(N)c34)[nH]c12 [OSI-027] (partner 0.5 µM),relative viability,[1]; first compound 0.08 µM,0.348
same,relative viability,[1]; first compound 0.253 µM,0.379
same,relative viability,[1]; first compound 0.8 µM,0.416
same,relative viability,[1]; first compound 2.53 µM,0.319
same,relative viability,[1]; first compound 8 µM,0.308
same,relative viability,[2]; first compound 0.08 µM,0.554
same,relative viability,[2]; first compound 0.253 µM,0.636
same,relative viability,[2]; first compound 0.8 µM,0.543
same,relative viability,[2]; first compound 2.53 µM,0.192
same,relative viability,[2]; first compound 8 µM,0.479
same,relative viability,[3]; first compound 0.08 µM,0.743
same,relative viability,[3]; first compound 0.253 µM,0.856
same,relative viability,[3]; first compound 2.53 µM,0.442
same,relative viability,[3]; first compound 8 µM,0.851
same,relative viability,[4]; first compound 0.08 µM,0.862
same,relative viability,[4]; first compound 0.253 µM,1.06
same,relative viability,[4]; first compound 0.8 µM,0.697
same,relative viability,[4]; first compound 2.53 µM,0.592
same,relative viability,[4]; first compound 8 µM,0.63
same,relative viability,[5]; first compound 0.08 µM,1.1
same,relative viability,[5]; first compound 0.253 µM,1.27
same,relative viability,[5]; first compound 0.8 µM,0.971
same,relative viability,[5]; first compound 8 µM,0.854
same,relative viability,[6]; first compound 0.08 µM,0.543
same,relative viability,[6]; first compound 0.253 µM,0.7
same,relative viability,[6]; first compound 0.8 µM,0.583
same,relative viability,[6]; first compound 2.53 µM,0.478
same,relative viability,[6]; first compound 8 µM,0.588
same,relative viability,[7]; first compound 0.08 µM,0.844
same,relative viability,[7]; first compound 0.253 µM,0.758
same,relative viability,[7]; first compound 0.8 µM,0.719
same,relative viability,[7]; first compound 2.53 µM,0.642
same,relative viability,[7]; first compound 8 µM,0.713
same,relative viability,[8]; first compound 0.08 µM,0.471
same,relative viability,[8]; first compound 0.253 µM,0.495
same,relative viability,[8]; first compound 0.8 µM,0.432
same,relative viability,[8]; first compound 2.53 µM,0.337
same,relative viability,[8]; first compound 8 µM,0.472
same,relative viability,[9]; first compound 0.08 µM,0.816
same,relative viability,[9]; first compound 0.253 µM,0.825
same,relative viability,[9]; first compound 0.8 µM,0.865
same,relative viability,[9]; first compound 2.53 µM,0.738
same,relative viability,[9]; first compound 8 µM,0.705
same,relative viability,[10]; first compound 0.08 µM,0.842
same,relative viability,[10]; first compound 0.253 µM,0.871
same,relative viability,[10]; first compound 0.8 µM,0.867
same,relative viability,[10]; first compound 2.53 µM,0.57
same,relative viability,[10]; first compound 8 µM,0.914
same,relative viability,[11]; first compound 0.08 µM,0.697
same,relative viability,[11]; first compound 0.253 µM,0.603
same,relative viability,[11]; first compound 0.8 µM,0.522
same,relative viability,[11]; first compound 2.53 µM,0.474
same,relative viability,[11]; first compound 8 µM,0.574
same,relative viability,[12]; first compound 0.08 µM,0.7
same,relative viability,[12]; first compound 0.253 µM,0.63
same,relative viability,[12]; first compound 0.8 µM,0.657
same,relative viability,[12]; first compound 2.53 µM,0.519
same,relative viability,[12]; first compound 8 µM,0.698
same,relative viability,[13]; first compound 0.08 µM,0.675
same,relative viability,[13]; first compound 0.253 µM,0.428
same,relative viability,[13]; first compound 0.8 µM,0.463
same,relative viability,[13]; first compound 2.53 µM,0.353
same,relative viability,[13]; first compound 8 µM,0.404
same,relative viability,[14]; first compound 0.08 µM,0.609
same,relative viability,[14]; first compound 0.253 µM,0.807
same,relative viability,[14]; first compound 0.8 µM,0.54
same,relative viability,[14]; first compound 2.53 µM,0.377
same,relative viability,[14]; first compound 8 µM,0.528
same,relative viability,[15]; first compound 0.08 µM,0.669
same,relative viability,[15]; first compound 0.253 µM,0.624
same,relative viability,[15]; first compound 0.8 µM,0.556
same,relative viability,[15]; first compound 2.53 µM,0.667
same,relative viability,[15]; first compound 8 µM,0.649
same,relative viability,[16]; first compound 0.08 µM,0.347
same,relative viability,[16]; first compound 0.253 µM,0.293
same,relative viability,[16]; first compound 0.8 µM,0.32
same,relative viability,[16]; first compound 8 µM,0.288
same,relative viability,[17]; first compound 0.08 µM,0.734
same,relative viability,[17]; first compound 0.253 µM,0.866
same,relative viability,[17]; first compound 0.8 µM,0.698
same,relative viability,[17]; first compound 8 µM,0.734
same,relative viability,[18]; first compound 0.08 µM,0.441
same,relative viability,[18]; first compound 0.253 µM,0.426
same,relative viability,[18]; first compound 0.8 µM,0.392
same,relative viability,[18]; first compound 8 µM,0.448
same,relative viability,[19]; first compound 0.08 µM,0.893
same,relative viability,[19]; first compound 0.253 µM,0.894
same,relative viability,[19]; first compound 0.8 µM,0.575
same,relative viability,[19]; first compound 8 µM,0.98
same,relative viability,[20]; first compound 0.08 µM,0.757
same,relative viability,[20]; first compound 0.253 µM,0.826
same,relative viability,[20]; first compound 0.8 µM,0.751
same,relative viability,[20]; first compound 2.53 µM,0.597
same,relative viability,[20]; first compound 8 µM,0.758
same,relative viability,[21]; first compound 0.08 µM,0.337
same,relative viability,[21]; first compound 0.253 µM,0.284
same,relative viability,[21]; first compound 0.8 µM,0.241
same,relative viability,[21]; first compound 2.53 µM,0.224
same,relative viability,[21]; first compound 8 µM,0.342
same,relative viability,[22]; first compound 0.08 µM,0.534
same,relative viability,[22]; first compound 0.253 µM,0.686
same,relative viability,[22]; first compound 0.8 µM,0.398
same,relative viability,[22]; first compound 2.53 µM,0.302
same,relative viability,[22]; first compound 8 µM,0.517
same,relative viability,[23]; first compound 0.08 µM,0.713
same,relative viability,[23]; first compound 0.253 µM,0.63
same,relative viability,[23]; first compound 0.8 µM,0.514
same,relative viability,[23]; first compound 2.53 µM,0.552
same,relative viability,[23]; first compound 8 µM,0.561
